Results on 8 compounds are retold here after US20140187625A1, “RODENTICIDAL COMPOUND, COMPOSITION INCLUDING SAME AND USE FOR COMBATING RODENT PESTS” (priority 2011, published 2014).

The term IC50 denotes the midpoint of a concentration-inhibition curve.

Bounds are passed on as bounds.

One assay addresses T1, activity with respect to vitamin K (vitamin K epoxide substrate), microsomal liver fractions from sensitive rats (Rattus norvegicus, UniProt Q6TEK4).
T1 construct: with 0.5 to 1 mg of microsomal liver fractions from sensitive rats; from tissue; host or cells: rat liver microsomes (sensitive rats)
T1 sequence (Q6TEK4 1-161): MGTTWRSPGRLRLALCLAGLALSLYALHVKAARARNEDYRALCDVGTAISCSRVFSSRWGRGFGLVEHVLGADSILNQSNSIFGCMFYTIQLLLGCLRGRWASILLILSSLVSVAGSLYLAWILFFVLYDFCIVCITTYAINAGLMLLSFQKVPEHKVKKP
The assay is described as follows: Inhibition of vitamin K epoxide reduction (activity with respect to vitamin K) in rat liver microsomes, IC50. The format is biochemical.
Details: not given
The method, then: The operating protocol is the following. Incubation is carried out in a 200 mM Hepes buffer (pH 7.4) containing 150 mM KCl in the presence of a reducing agent, dithiothreitol (1 mM): • with 0.5 to 1 mg of microsomal liver fractions from sensitive rats, and the reaction substrate, • with […] of vitamin K epoxide in a final volume of 1 ml.
The mixture is incubated for 30 minutes at 37° C. and the reaction is stopped by addition of 4 ml of a mixture of isopropanol/hexane (1:1).
The reaction mixture is then centrifuged for 10 minutes at 3,000 revolutions per minute.
The organic phase is collected and then evaporated to dryness under nitrogen.
The dry residue is immediately taken up in 200 μl of isopropanol.
The vitamin K is then analyzed. The products are separated by reverse chromatography on a C8 column using a mobile phase composed of methanol and acetic acid under isocratic conditions (1 ml/min) at 45° C. Detection of the product is carried out by MS/MS with an APCI source in positive mode.
The identification criteria for vitamin K are the retention time and the production of fragment 187 from the initial ion 451.
The IC50 values are evaluated by non-linear to linear regression from the equation of non-competitive inhibition:
v=(vmax/(l+(I/Ki)))*(S/(Km+S))
where v represents the initial rate, I the concentration of anticoagulant, Km the Michaelis-Menten constant, S the concentration of substrate (mM), Vmax the maximum rate of reaction and Ki the inhibition constant.
Compound `CCCCCCCCCCc1c(O)c2ccccc2oc1=O` [III] came in with an IC50 of 60 nM. The same measure, in the same setting: for `CCCCCCCCc1c(O)c2ccccc2oc1=O` [II] the value was 150 nM; for `CCCCCCCCCCCCc1c(O)c2ccccc2oc1=O` [IV], 50 nM.

In turn, `CCCCCCc1c(O)c2ccccc2oc1=O` [VIII, reference compound] gave an IC50 of over 200 nM.

Take `CCCCCCCCCCCCCCCCCCc1c(O)c2ccccc2oc1=O` [VII]: the IC50 is 60 nM. Compound `CCCCCCCCCCCCCCCCc1c(O)c2ccccc2oc1=O` [VI] showed an IC50 of 40 nM.

In turn, `CCCCCCCCCCCCCCc1c(O)c2ccccc2oc1=O` [V] gave an IC50 of 40 nM.

Staying with this assay, now noted: microsomal liver fractions from sensitive rats, vitamin K epoxide substrate, 30 minutes at 37° C., pH 7.4, 1 mM dithiothreitol; read-out: IC50.
Consider `CCCCCCCCCCCCCCCCCCCCc1c(O)c2ccccc2oc1=O` [IX, reference compound], for which the IC50 is over 500 nM.
